Legend:
[1] = molecular target: T1, HDAC8 (Homo sapiens, UniProt Q9BY41); experiment: HDAC inhibition assay; type: biochemical
T1 sequence (Q9BY41 1-377): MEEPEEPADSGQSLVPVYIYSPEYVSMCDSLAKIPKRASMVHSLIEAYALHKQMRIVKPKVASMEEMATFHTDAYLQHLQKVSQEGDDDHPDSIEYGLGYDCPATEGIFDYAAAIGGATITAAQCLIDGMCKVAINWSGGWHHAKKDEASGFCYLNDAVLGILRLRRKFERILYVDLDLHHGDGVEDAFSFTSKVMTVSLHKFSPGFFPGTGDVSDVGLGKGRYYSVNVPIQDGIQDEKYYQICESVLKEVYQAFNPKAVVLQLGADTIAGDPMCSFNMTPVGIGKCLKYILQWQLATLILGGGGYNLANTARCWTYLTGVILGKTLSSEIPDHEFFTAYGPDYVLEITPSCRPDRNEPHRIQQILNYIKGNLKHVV

[2] = molecular target: T2, HDAC6 (Homo sapiens, UniProt Q9UBN7); experiment: HDAC inhibition assay; type: biochemical; settings: for selectivity for HDAC6 over HDAC8 (between the two enzymes): from Ki values
T2 sequence (Q9UBN7 1-1215): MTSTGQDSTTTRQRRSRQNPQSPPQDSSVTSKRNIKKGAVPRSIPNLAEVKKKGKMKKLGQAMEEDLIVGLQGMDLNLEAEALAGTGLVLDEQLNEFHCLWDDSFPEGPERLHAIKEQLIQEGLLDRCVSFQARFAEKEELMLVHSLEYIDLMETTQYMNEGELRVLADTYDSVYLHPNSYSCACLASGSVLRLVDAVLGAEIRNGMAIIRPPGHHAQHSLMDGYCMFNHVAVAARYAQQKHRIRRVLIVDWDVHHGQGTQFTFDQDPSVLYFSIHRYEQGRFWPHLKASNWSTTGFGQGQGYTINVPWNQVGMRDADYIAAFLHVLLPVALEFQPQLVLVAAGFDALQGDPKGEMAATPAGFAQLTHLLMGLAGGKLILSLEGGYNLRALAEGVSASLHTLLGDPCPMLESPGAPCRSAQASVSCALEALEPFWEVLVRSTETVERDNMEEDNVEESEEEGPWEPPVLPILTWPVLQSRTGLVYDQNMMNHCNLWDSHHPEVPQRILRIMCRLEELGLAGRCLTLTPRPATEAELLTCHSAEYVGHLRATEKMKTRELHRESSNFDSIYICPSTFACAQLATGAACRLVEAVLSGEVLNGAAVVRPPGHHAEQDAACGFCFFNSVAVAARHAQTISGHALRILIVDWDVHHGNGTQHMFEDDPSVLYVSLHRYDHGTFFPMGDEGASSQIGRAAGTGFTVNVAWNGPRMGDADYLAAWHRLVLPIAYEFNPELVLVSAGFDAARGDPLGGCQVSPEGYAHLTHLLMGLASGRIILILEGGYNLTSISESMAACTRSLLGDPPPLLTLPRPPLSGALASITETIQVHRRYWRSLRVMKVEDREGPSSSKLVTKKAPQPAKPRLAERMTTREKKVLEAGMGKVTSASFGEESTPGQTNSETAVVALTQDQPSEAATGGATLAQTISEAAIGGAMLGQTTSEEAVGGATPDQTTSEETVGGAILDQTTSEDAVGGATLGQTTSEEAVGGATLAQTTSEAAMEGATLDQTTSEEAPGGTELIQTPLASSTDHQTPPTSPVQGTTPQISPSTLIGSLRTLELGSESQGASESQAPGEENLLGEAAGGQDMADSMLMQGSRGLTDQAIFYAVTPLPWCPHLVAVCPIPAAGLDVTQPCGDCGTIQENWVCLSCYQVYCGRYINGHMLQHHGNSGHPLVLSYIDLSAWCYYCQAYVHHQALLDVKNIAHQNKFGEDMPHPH

[3] = system: lysine acetylation (α-tubulin, H3K18, H3K27, and SMC3) in HEK293T cells; experiment: Protein acetylation assay; type: cell-based, human; settings: 5 h, 1 or 10 μM, Western blot
[4] = molecular target: T1, HDAC8; experiment: Cellular thermal shift assay; type: cell-based; settings: HEK293T cells, 10 µM, 2 h
[5] = molecular target: T2, HDAC6; experiment: HDAC inhibition assay with preincubation, HDAC6; type: biochemical; settings: preincubation 0, 0.5, 1 or 2 h at 37 °C
[6] = molecular target: T3, HDAC11 (Homo sapiens, UniProt Q96DB2); experiment: HDAC inhibition assay with preincubation, HDAC11; type: biochemical; settings: preincubation 0, 0.5, 1 or 2 h at 37 °C
T3 sequence (Q96DB2 1-347): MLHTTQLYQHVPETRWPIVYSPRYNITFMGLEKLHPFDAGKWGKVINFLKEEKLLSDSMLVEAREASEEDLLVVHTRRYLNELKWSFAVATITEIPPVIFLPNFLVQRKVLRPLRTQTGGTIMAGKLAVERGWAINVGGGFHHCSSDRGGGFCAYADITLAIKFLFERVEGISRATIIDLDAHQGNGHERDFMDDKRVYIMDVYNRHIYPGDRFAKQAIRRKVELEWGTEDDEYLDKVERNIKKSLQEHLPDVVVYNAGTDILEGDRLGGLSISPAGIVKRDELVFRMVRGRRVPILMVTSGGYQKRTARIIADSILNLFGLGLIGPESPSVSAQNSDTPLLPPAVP

COc1ccc(OS(=O)(=O)Oc2cccc(C(=O)NO)c2)cc1OC [A17]
Ki [1]: 22 nM

O=C(NO)c1cncc(OS(=O)(=O)Oc2ccc3ccccc3c2)c1 [E24]
Ki [2]: 14 nM
selectivity for HDAC6 over HDAC8 (between the two enzymes) [2]: ~20 fold
acetylation of α-tubulin compared to DMSO control [3]: significant upregulation
thermal shift of HDAC8 relative to DMSO control [4]: no shift
change of IC50 upon preincubation with HDAC6 [5]: did not observe any decrease in IC50 value upon preincubation

O=C(NO)c1cc(F)cc(OS(=O)(=O)Oc2ccccc2)c1 [C1]
selectivity for HDAC6 over HDAC8 (between the two enzymes) [2]: 20 fold
acetylation of α-tubulin compared to DMSO control [3]: significant upregulation
change of IC50 upon preincubation with HDAC6 [5]: did not observe any decrease in IC50 value upon preincubation

Cc1c(OS(=O)(=O)Oc2ccc(Oc3ccccc3)cc2)cccc1C(=O)NO [D21]
change of IC50 upon preincubation with HDAC11 [6]: did not observe any decrease in IC50 value upon preincubation

Source: article PMC11134391 (JACS Au, 2024)
